According to patent US9102675B2, “3-Cyanoaryl-1H-pyrrolo[2,3-B] pyridine derivatives” (MERCK PATENT GMBH, priority 2011, dated 2015):

Test system: TBK1 + IKKε
Assay: TBK1 + IKKε cell assay: dose response inhibition of phospho-IRF3 @ Ser 386 in MDA-MB-468 cells after poly(I:C) stimulation
Format: cell-based
Details: Homo sapiens, MDA-MB-468, MDA-MB-468 cells, nuclear phospho-IRF3 Ser386, read-out: TBK1 + IKKε cell assay IC50
Description: Dose response inhibition of phospho-IRF3 @ Ser 386 cell/MDAMB468/INH/PHOS/IMAG/pIRF3
Although TBK1 and IKKε are mainly known as key substances in the innate immune response, recent findings have indicated a role for TBK1 and IKKε in Ras-induced oncogenic transformation. TBK1 was identified as RaIB effector in the Ras-like (RaI)-guanine nucleotide exchange factor (GEF) pathway that is required for Ras-induced transformation. TBK1 directly activates IRF3 which, on phosphorylation, homodimerises and translocates to the nucleus, where it activates processes associated with inflammation, immune regulation, cell survival and proliferation.
This assay has been developed in order to assess the efficacy/potency of TBK1/IKKε inhibitor compounds based on the immunocytochemical detection of nucleus-localised phospho-IRF3, a target directly downstream of TBK1. Treatment with polyinosine-polycytidylic acid (poly(I:C), a synthetic analogue of double-stranded RNA (dsRNA), a molecular pattern associated with viral infection and recognised by Toll-like receptor 3 (TLR3) is used to induce TBK1/IKKε activity and IRF3 phosphorylation at Ser386.
Day 1: MDA-MB-468 cells are detached using HyQ-Tase, counted and sown into a 384-well plate with TC surface and clear bottom in a density of 10,000 cells per well in a total volume of 35 μl of complete medium. Alternatively, the cells are sown directly from frozen glass vials.
Day 2: The cells are pre-treated with inhibitor compounds for 1 h prior to poly(I:C) stimulation. After incubation for 2 h with poly(I:C), the cells are fixed in (para)formaldehyde (PFA) and permeabilised using methanol (MeOH). The cells are then blocked and incubated with an anti-pIRF3 antibody at 4° C. overnight.
Day 3: The primary antibody is washed off, an AlexaFluor488-conjugated secondary antibody is added, the cells are contrast-stained with propidium iodide, followed by image acquisition on an IMX ultra-high content reader.
Plating medium=culture medium: • RPMI 1640, Invitrogen #31870 • 10% of FCS, Invitrogen #10270-106 • 2 mM Glutamax, Invitrogen #35050-038 • 1 mM sodium pyruvate, Invitrogen #11360 • 1% of Pen/Strep • 37° C., 5% of CO2
Plates: 384-well bottom cell culture plates with black/clear bottom, Falcon #35 3962 or Greiner #781090
Subcultivation: HyQ-Tase, Thermo Scientific (HyClone) # SV30030.01
Poly(I:C) (LMW), Invitrogen # tlrl-picw (prepare 20 mg/ml stock solution in sterile PBS, denature 30 min 55° C. in a water bath, slowly cool to RT, store at −20° C. in aliquots)
a 10-point dose-response curve with MSC2119074A-4=BX-795 is included in each experiment
Formaldehyde (methanol-free, 16%, ultrapure EM grade), Polysciences #18814 (storage RT), final conc.: 4%
Goat serum, PAA # B15-035 (storage 4° C., long term −20° C.), final conc.: 10%
BSA (IgG- and protease-free, 30%), US-Biological # A1317 (storage 4° C., long term −20° C.), final conc.: 2%
Tween 20 detergent, Calbiochem #655204 (storage RT), (prepare 10% stock solution in water; final conc.: 0.1%)
Anti-pIRF-3 rabbit mAb, Epitomics #2526-B (storage −20° C.), final conc.: 1:2000 in PBS/2% of BSA
Alexa Fluor goat-anti-rabbit-488, Invitrogen # A11034 or # A11008 (storage 4° C., dark), final conc.: 1:2000 in PBS/2% of BSA/0.1% of Tween
Propidium iodide (PI), Fluka #81845, 1 mg/ml in H2O (storage 4° C., dark), final conc.: 0.2 μg/ml
(1) Sow 10,000 cells/well/35μof complete RPMI +10% FCS into 384-well bottom cell culture plates with black / clear bottom,
(2) Incubate for 2 h at room temperature on the bench, followed by further incubation for 22 h at 37° C., 5% of CO2 and 90% RH. […]

| SMILES | IC50 [nM] |
| --- | --- |
| CC1(COc2ccc(-c3c[nH]c4ncc(-c5cn[nH]c5)cc34)cc2C#N)COC1 [Compound A36, 2-(3-methyloxetan-3-ylmethoxy)-5-[5-(1H-pyrazol-4-yl)-1H-pyrrolo[2,3-b]pyridin-3-yl]benzonitrile] | 3000 to 50000 |
| N#Cc1cc(-c2c[nH]c3ncc(-c4cnn(C5COC5)c4)cc23)cnc1OC1CCOCC1 [Compound A37, 5-[5-(1-Oxetan-3-yl-1H-pyrazol-4-yl)-1H-pyrrolo-[2,3-b]pyridin-3-yl]-2-(tetrahydropyran-4-yloxy)-nicotinonitrile] | 3000 to 50000 |
| COCCn1cc(-c2cnc3[nH]cc(-c4cnc(OC5CCOCC5)c(C#N)c4)c3c2)cn1 [Compound A38, 5-{5-[1-(2-Methoxyethyl)-1H-pyrazol-4-yl]-1H-pyrrolo-[2,3-b]pyridin-3-yl}-2-(tetrahydropyran-4-yloxy)-nicotinonitrile] | 300 to 3000 |
